This note sets out measurements from patent US5258492A, “LHRH analogues with cytotoxic moieties at the sixth position” (The Administrators of the Tulane Educational Fund, priority 1991, dated 1993).

Test [1] has as its target T1, membrane receptors of human breast cancer cells (Homo sapiens, UniProt P30968).
T1 construct: endogenous in cells; host or cells: human breast cancer cells (membranes)
T1 sequence (P30968 1-328): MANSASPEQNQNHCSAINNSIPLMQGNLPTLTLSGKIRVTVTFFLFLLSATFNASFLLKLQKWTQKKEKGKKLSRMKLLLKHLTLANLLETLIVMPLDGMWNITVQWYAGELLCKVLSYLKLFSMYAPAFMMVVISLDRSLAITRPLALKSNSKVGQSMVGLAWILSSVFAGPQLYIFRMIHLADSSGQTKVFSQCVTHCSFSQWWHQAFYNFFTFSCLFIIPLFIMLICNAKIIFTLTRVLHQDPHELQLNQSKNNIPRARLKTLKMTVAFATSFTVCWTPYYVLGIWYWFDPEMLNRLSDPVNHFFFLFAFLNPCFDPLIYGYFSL
The test is described as follows: Binding affinity for membrane receptors of human breast cancer cells using 125I-labeled [D-Trp6]LHRH. On the procedure:
(§1) This is determined by using labelled LHRH and [D-Trp^6 ]LHRH. The assay is carried out similarly to that described by T. Kadar et al., Proc. Natl. Acad. Sci. USA, 85, 890-894 (1988).
(§2) Table 2 presents the antiovulatory activity of the claimed compounds having LHRH-inhibiting properties. The inhibitory action was determined in vivo, in 4-day cycling rats as described [A. Corbin and C. W. Beattie, Endocr. Res. Commun., 2, 1-23 (1975)]. Affinities of the claimed compounds to membrane receptors of rat pituitary and human breast cancer cells are also given in Tables 1 and 2 as determined by using [^125 I,D-Trp^6 ]LHRH.
(§3) **Affinity constants of the peptides for the first receptor class (i.e.
(§4) for high affinity binding sites) of pituitary of male rats and human
(§5) breast cancer cells, respectively, as determined by using ^125
(§6) Ilabeled [DTrp^6 ]LHRH.
(§7) breast cancer cells, respectively, were determined by using ^125

The test system of test [2] is dispersed rat pituitary cell superfusion system. The test is described as follows: LH release in dispersed rat pituitary cell superfusion system (agonistic activity). In kind it is cell-based. The settings on record: Table 1; peptide infused 3 min, LH released compared to 3 nM LHRH. On the procedure: *LH responses to the analogues were determined in dispersed rat pituitary
cell superfusion system.

In test [3] the target is T2, membrane receptors of pituitary of male rats (Rattus norvegicus, UniProt P30969).
T2 construct: from tissue; host or cells: pituitary of male rats (membranes)
T2 sequence (P30969 1-327): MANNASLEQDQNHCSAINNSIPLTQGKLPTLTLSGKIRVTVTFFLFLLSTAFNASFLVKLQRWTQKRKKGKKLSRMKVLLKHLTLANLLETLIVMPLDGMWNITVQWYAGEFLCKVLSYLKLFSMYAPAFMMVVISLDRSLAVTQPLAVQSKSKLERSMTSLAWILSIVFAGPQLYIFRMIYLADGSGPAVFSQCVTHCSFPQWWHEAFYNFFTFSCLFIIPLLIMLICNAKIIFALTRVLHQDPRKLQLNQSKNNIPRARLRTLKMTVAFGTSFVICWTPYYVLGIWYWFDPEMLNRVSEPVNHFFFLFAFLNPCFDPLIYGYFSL
The test is described as follows: Binding affinity for membrane receptors of rat pituitary using 125I-labeled [D-Trp6]LHRH. The conditions noted are these: Table 1, high affinity binding sites. On the procedure:
as §1, §2, §3, §4, §5, §6, §7

Setting [4] is: Table 2, high affinity binding sites.
Setting [5] is: Table 1, high affinity binding sites.

Consider “Ac-D-Nal(2)-D-Phe(4Cl)-D-Pal(3)-Ser-Arg-D-Lys[(Cu^++)(SAL)2 (A2 bu-Eac)]-Leu-Arg-Pro-D-Ala-NH2 [XXVIII]”, for which the “Binding affinity, Ka1, for membrane receptors of cancer cells” value (shortened to “Binding affinity, Ka1 … of cancer cells”) in test [1] (setting [4]) is 0.192 nM⁻¹.

Consider “Ac-D-Nal(2)-D-Phe(4Cl)-D-Pal(3)-Ser-Arg-D-Lys[(PtCl2)-A2 bu-Eac)]-Leu-Arg-Pro-D-Ala-NH2 [XXVII]”, for which the “Binding affinity, Ka1 … of cancer cells” value in test [1] (setting [4]) was 2.152 nM⁻¹.

In the case of “[D-Lys[(Cu^++)(SAL)2 (L-A2 pr)]^6 ]LHRH [VIA]”, the “Hormonal activity, LH responses rel. to LHRH (= 1)” value (“Hormonal activity” for short) in test [2] is 12. Besides, the “Binding affinity, Ka1, for membrane receptors of pituitary” value (“Binding affinity, Ka1 … of pituitary” below) in test [3] was 3.051 nM⁻¹. For the same substance, the “Binding affinity, Ka1 … of cancer cells” value in test [1] (setting [5]) was found to be 1.348 nM⁻¹.

In the case of “[D-Lys[(Ni^++)(SAL)2(D-A2 pr)]^6 ]LHRH [VIIIB]”, the “Hormonal activity” value in test [2] is on record as 10. In addition, the “Binding affinity, Ka1 … of pituitary” value in test [3] stood at 6.457 nM⁻¹. Further, in test [1] (setting [5]), the “Binding affinity, Ka1 … of cancer cells” value is 3.334 nM⁻¹.

As to “[D-Lys[(Ni^++)(SAL)2(L-A2 pr)]^6 ]LHRH [VIIIA]”, the “Hormonal activity” value in test [2] stood at 12. For the same substance, the “Binding affinity, Ka1 … of pituitary” value in test [3] is 9.710 nM⁻¹. The “Binding affinity, Ka1 … of cancer cells” value in test [1] (setting [5]) was found to be 5.234 nM⁻¹.

As for “pGlu-His-Trp-Ser-Tyr-D-Lys[(Cu^++)(CISAL)2 (DL-A2 pr)]-Leu-Arg-Pro-Gly-NH2 [Example IX]”, in test [2], the “Hormonal activity” value worked out at 10. Further, in test [3], the “Binding affinity, Ka1 … of pituitary” value stood at 8.625 nM⁻¹. The “Binding affinity, Ka1 … of cancer cells” value in test [1] (setting [5]) amounted to 3.995 nM⁻¹.

Consider “pGlu-His-Trp-Ser-Tyr-D-Lys[(Cu^++)(FUR)2 (DL-A2 pr)]-Leu-Arg-Pro-Gly-NH2 [XVII]”, for which, in test [2], the “Hormonal activity” value is 10. Also, in test [3], the “Binding affinity, Ka1 … of pituitary” value is 1.770 nM⁻¹. Further, the “Binding affinity, Ka1 … of cancer cells” value in test [1] (setting [5]) is 0.536 nM⁻¹.

Take “pGlu-His-Trp-Ser-Tyr-D-Lys[(Cu^++)(PEN)2 (A2 pr)]-Leu-Arg-Pro-Gly-NH2 [Example XXI]”: the “Hormonal activity” value in test [2] is 10.6. In test [3], the “Binding affinity, Ka1 … of pituitary” value worked out at 10.989 nM⁻¹. Further, the “Binding affinity, Ka1 … of cancer cells” value in test [1] (setting [5]) came out at 5.096 nM⁻¹.

Turning to “pGlu-His-Trp-Ser-Tyr-D-Lys[(Cu^++)(POL)2 (DL-A2 bu)]-Leu-Arg-Pro-Gly-NH2 [XXV]”, the “Hormonal activity” value in test [2] was 5.5. In addition, in test [3], the “Binding affinity, Ka1 … of pituitary” value was found to be 6.405 nM⁻¹. The “Binding affinity, Ka1 … of cancer cells” value in test [1] (setting [5]) was found to be 3.141 nM⁻¹.

As for “pGlu-His-Trp-Ser-Tyr-D-Lys[(Cu^++)(POLP)2 (DL-A2 bu)]-Leu-Arg-Pro-Gly-NH2 [Example XVI]”, the “Hormonal activity” value in test [2] was determined as 1.5. In addition, the “Binding affinity, Ka1 … of pituitary” value in test [3] came out at 9.751 nM⁻¹. Further, in test [1] (setting [5]), the “Binding affinity, Ka1 … of cancer cells” value was 5.038 nM⁻¹.

On to “pGlu-His-Trp-Ser-Tyr-D-Lys[(Cu^++)(SAL)2 (DL-A2 bu)]-Leu-Arg-Pro-Gly-NH2 [XIV]”, for which, in test [2], the “Hormonal activity” value is 25. In test [3], the “Binding affinity, Ka1 … of pituitary” value stood at 5.589 nM⁻¹. For the same substance, the “Binding affinity, Ka1 … of cancer cells” value in test [1] (setting [5]) worked out at 1.628 nM⁻¹.

As for “pGlu-His-Trp-Ser-Tyr-D-Lys[(Ni^++)(CISAL)2 (DL-A2 pr)]-Leu-Arg-Pro-Gly-NH2 [Example X]”, the “Hormonal activity” value in test [2] came out at 4. For the same substance, in test [3], the “Binding affinity, Ka1 … of pituitary” value stood at 4.513 nM⁻¹. Further, the “Binding affinity, Ka1 … of cancer cells” value in test [1] (setting [5]) was found to be 2.236 nM⁻¹.

Consider “pGlu-His-Trp-Ser-Tyr-D-Lys[(PtCl2)(DL-A2 pr)]-Leu-Arg-Pro-Gly-NH2 [Example III]”, for which the “Hormonal activity” value in test [2] came out at 55. For the same substance, the “Binding affinity, Ka1 … of pituitary” value in test [3] amounted to 3.285 nM⁻¹. Besides, the “Binding affinity, Ka1 … of cancer cells” value in test [1] (setting [5]) stood at 1.743 nM⁻¹.

As for “pGlu-His-Trp-Ser-Tyr-D-Lys[Cu^++)(POL)2 (DL-A2 pr)]-Leu-Arg-Pro-Gly-NH2 [XVIII]”, in test [2], the “Hormonal activity” value was determined as 9. In test [3], the “Binding affinity, Ka1 … of pituitary” value is 5.817 nM⁻¹. Moreover, the “Binding affinity, Ka1 … of cancer cells” value in test [1] (setting [5]) is 3.005 nM⁻¹.

“pGlu-His-Trp-Ser-Tyr-D-Lys[Cu^++)(POLP)2 (A2 pr)]-Leu-Arg-Pro-Gly-NH2 [XIX]”: the “Hormonal activity” value in test [2] worked out at 0.3. In test [3], the “Binding affinity, Ka1 … of pituitary” value came out at 8.676 nM⁻¹. In addition, the “Binding affinity, Ka1 … of cancer cells” value in test [1] (setting [5]) was found to be 4.528 nM⁻¹.
